Target: full-length recombinant human NEK7 (Homo sapiens (Human), UniProt Q8TDX7)
Assay: NEK7 Enzymatic Assay
Type: biochemical
Conditions: casein substrate, [33P]-ATP, 2 hours at room temperature
Method in brief: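 GST-tagged full-length human NEK7 (Sf9-expressed) with 1 mg/mL casein in HEPES pH 7.5/MgCl2 buffer, 1% DMSO; compounds 10 μM–0.5 nM preincubated 20 min at RT. Reaction started with [^33P]-ATP, 2 h at RT, P81 filter radioactivity read; IC50 from % activity remaining versus vehicle.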

Chain of full-length recombinant human NEK7 (Q8TDX7 whole entry): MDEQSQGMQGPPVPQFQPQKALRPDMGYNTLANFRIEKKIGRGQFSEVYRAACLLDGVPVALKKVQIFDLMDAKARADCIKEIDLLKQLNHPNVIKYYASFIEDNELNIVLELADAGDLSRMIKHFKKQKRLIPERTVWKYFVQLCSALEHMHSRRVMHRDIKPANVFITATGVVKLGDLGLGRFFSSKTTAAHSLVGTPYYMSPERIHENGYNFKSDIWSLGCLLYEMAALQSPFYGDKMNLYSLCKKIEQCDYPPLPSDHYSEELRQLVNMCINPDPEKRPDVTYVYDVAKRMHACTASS

Row | IC50 [nM] | Structure (SMILES)
1 | < 200 | CN1CCN(Cc2ccc(NC(=O)Nc3ccc(-c4cn(C5CCC5)c5ncnc(N)c45)n4ccnc34)cc2C(F)(F)F)CC1 [Example I-129, 1-(5-(4-amino-7-cyclobutyl-7H-pyrrolo[2,3-d]pyrimidin-5-yl)imidazo[1,2-a]pyridin-8-yl)-3-(4-((4-methylpiperazin-1-yl)methyl)-3-(trifluorometh-yl)phenyl)urea]
2 | < 200 | CN1CCN(Cc2ccc(NC(=O)Nc3ccc(-c4cn(CCO)c5ncnc(N)c45)n4ccnc34)cc2C(F)(F)F)CC1 [Example I-130, 1-(5-(4-amino-7-(2-hydroxy-ethyl)-7H-pyrrolo[2,3-d]pyr-imidin-5-yl)imidazo[1,2-a]-pyridin-8-yl)-3-(4-((4-meth-ylpiperazin-1-yl)methyl)-3-(trifluoromethyl)phenyl)urea]
3 | < 200 | CN1CCN(Cc2ccc(NC(=O)Nc3ccc(-c4cn(CC(C)(C)O)c5ncnc(N)c45)n4ccnc34)cc2C(F)(F)F)CC1 [Example I-131, 1-(5-(4-amino-7-(2-hydroxy-2-methylpropyl)-7H-pyrrolo[2,3-d]pyrimidin-5-yl)imidazo[1,2-a]pyridin-8-yl)-3-(4-((4-meth-ylpiperazin-1-yl)methyl)-3-(trifluoromethyl)phenyl)urea]
4 | < 200 | CN1CCN(Cc2ccc(NC(=O)Nc3ccc(-c4cn(C5CC(O)C5)c5ncnc(N)c45)n4ccnc34)cc2C(F)(F)F)CC1 (stereo not shown) [Example I-132, 1-(5-(4-amino-7-(3-hydroxy-cyclobutyl)-7H-pyrrolo[2,3-d]pyrimidin-5-yl)imidazo[1,2-a]pyridin-8-yl)-3-(4-((4-meth-ylpiperazin-1-yl)methyl)-3-(trifluoromethyl)phenyl)urea]
5 | < 200 | CN1CCN(Cc2ccc(NC(=O)Nc3ccc(-c4cn(C5CCNCC5)c5ncnc(N)c45)n4ccnc34)cc2C(F)(F)F)CC1 [Example I-133, 1-(5-(4-amino-7-(piperidin-4-yl)-7H-pyrrolo[2,3-d]pyr-imidin-5-yl)imidazo[1,2-a]-pyridin-8-yl)-3-(4-((4-methyl-piperazin-1-yl)methyl)-3-(trifluoromethyl)phenyl)urea]
6 | 200 to 500 | CN1CCC(n2cc(-c3ccc(NC(=O)Nc4ccc(CN5CCN(C)CC5)c(C(F)(F)F)c4)c4nccn34)c3c(N)ncnc32)CC1 [Example I-134, 1-(5-(4-amino-7-(1-methyl-piperidin-4-yl)-7H-pyrrolo-[2,3-d]pyrimidin-5-yl)imidazo-[1,2-a]pyridin-8-yl)-3-(4-((4-methylpiperazin-1-yl)methyl)-3-(trifluoromethyl)phenyl)urea]
7 | < 200 | CC(C)n1cc(-c2ccc(NC(=O)Nc3ccc(OC4CCN(C)CC4)c(C(F)(F)F)c3)c3nccn23)c2c(N)ncnc21 [Example I-135, 1-(5-(4-amino-7-isopropyl-7H-pyrrolo[2,3-d]pyrimidin-5-yl)imidazo[1,2-a]pyridin-8-yl)-3-(4-((1-methylpiperidin-4-yl)oxy)-3-(trifluoromethyl)-phenyl)urea]
8 | < 200 | CCN1CCC(Oc2ccc(NC(=O)Nc3ccc(-c4cn(C(C)C)c5ncnc(N)c45)n4ccnc34)cc2C(F)(F)F)CC1 [Example I-136, 1-(5-(4-amino-7-isopropyl-7H-pyrrolo[2,3-d]pyrimidin-5-yl)imidazo[1,2-a]pyridin-8-yl)-3-(4-((1-ethylpiperidin-4-yl)oxy)-3-(trifluoromethyl)-phenyl)urea]
9 | < 200 | CCN1CCC(Oc2ccc(NC(=O)Nc3ccc(-c4cn(C5CCC5)c5ncnc(N)c45)n4ccnc34)cc2C(F)(F)F)CC1 [Example I-137, 1-(5-(4-amino-7-cyclobutyl-7H-pyrrolo[2,3-d]pyrimidin-5-yl)imidazo[1,2-a]pyridin-8-yl)-3-(4-((1-ethylpiperidin-4-yl)oxy)-3-(trifluoromethyl)-phenyl)urea]

Continued, compound first:

Row | Structure (SMILES) | IC50 [nM]
10 | CCN1CCC(Oc2ccc(NC(=O)Nc3ccc(-c4cn(C5CC5)c5ncnc(N)c45)c4c3OC(C)C4)cc2C(F)(F)F)CC1 (stereo not shown) [Example I-121, 1-(4-(4-amino-7-cyclopropyl-7H-pyrrolo[2,3-d]pyrimidin-5-yl)-2-methyl-2,3-dihydro-benzofuran-7-yl)-3-(4-((1-ethylpiperidin-4-yl)oxy)-3-(trifluoromethyl)phenyl)urea] | > 2000
11 | CC1(C)Cc2c(-c3cn(C4CCC4)c4ncnc(N)c34)ccc(NC(=O)Nc3cc(C4(C(F)(F)F)CC4)on3)c2O1 [Example I-122, 1-(4-(4-amino-7-cyclobutyl-7H-pyrrolo[2,3-d]pyrimidin-5-yl)-2,2-dimethyl-2,3-dihydrobenzofuran-7-yl)-3-(5-(1-(trifluoromethyl)cyclo-propyl)isoxazol-3-yl)urea] | 500 to 2000
12 | CCN1CCC(Oc2ccc(NC(=O)Nc3ccc(-c4cn(C5CC5)c5ncnc(N)c45)c4c3OC(C)(C)C4)cc2C(F)(F)F)CC1 [Example I-123, 1-(4-(4-amino-7-cyclopropyl-7H-pyrrolo[2,3-d]pyrimidin-5-yl)-2,2-dimethyl-2,3-dihydrobenzofuran-7-yl)-3-(4-((1-ethylpiperidin-4-yl)oxy)-3-(trifluoromethyl)phenyl)urea] | > 2000
13 | CCN1CCC(Oc2ccc(NC(=O)Nc3ccc(-c4cn(C5CC5)c5ncnc(N)c45)c4cnoc34)cc2C(F)(F)F)CC1 [Example I-125, 1-(4-(4-amino-7-cyclopropyl-7H-pyrrolo[2,3-d]pyrimidin-5-yl)benzo[d]isoxazol-7-yl)-3-(4-((1-ethylpiperidin-4-yl)oxy)-3-(trifluoromethyl)phenyl)urea] | 200 to 500
14 | Cn1cc(-c2ccc(NC(=O)Nc3cc(C4(C(F)(F)F)CC4)on3)c3nccn23)c2c(N)ncnc21 [Example I-126, 1-(5-(4-amino-7-methyl-7H-pyrrolo[2,3-d]pyrimidin-5-yl)imidazo[1,2-a]pyridin-8-yl)-3-(5-(1-(trifluoromethyl)-cyclopropyl)isoxazol-3-yl)urea] | < 200
15 | CN1CCN(Cc2ccc(NC(=O)Nc3ccc(-c4cn(C)c5ncnc(N)c45)n4ccnc34)cc2C(F)(F)F)CC1 [Example I-127, 1-(5-(4-amino-7-methyl-7H-pyrrolo[2,3-d]pyrimidin-5-yl)imidazo[1,2-a]pyridin-8-yl)-3-(4-((4-methylpiperazin-1-yl)methyl)-3-(trifluorometh-yl)phenyl)urea] | < 200
16 | CC(C)n1cc(-c2ccc(NC(=O)Nc3ccc(CN4CCN(C)CC4)c(C(F)(F)F)c3)c3nccn23)c2c(N)ncnc21 [Example I-128, 1-(5-(4-amino-7-isopropyl-7H-pyrrolo[2,3-d]pyrimidin-5-yl)imidazo[1,2-a]pyridin-8-yl)-3-(4-((4-methylpiperazin-1-yl)methyl)-3-(trifluorometh-yl)phenyl)urea] | < 200

Source: patent US20240158394A1, “NEK7 INHIBITORS” (Halia Therapeutics, Inc., priority 2022, published 2024)
